Laboratory results published in PMC12040169 (PLOS Biology, 2025).

experiment: in vitro; conditions: human, hela cells, % viability

Structure (SMILES) | viability at 28.5 h, 10 µM [%]
CCCC(=O)Nc1cccc(NC(=O)c2nc[nH]n2)c1 [CBK269604] | 104
Cc1ccc(S(=O)(=O)N2CCN(CCC(=O)O)CC2)cc1 [CBK269443] | 97.1
CCN(CC)C(=O)Cn1ncc2c3oc(C)cc3n(C(C)C)c2c1=O [CBK282848] | 90.7
CC(C)n1nccc1C(=O)N1CCCC(c2cc3cccnc3[nH]2)C1 (stereo not drawn) [CBK284930] | 99.3
O=C(NC1Cc2ccccc2C1)c1cncnc1 [CBK200262] | 119
Nc1ncc(-c2cccc3ncccc23)nc1N1CCC[C@@H]1CO [CBK063441] | 105
CN1C(=O)/C(=C2\SC(=S)N(C(CCC(=O)O)C(=O)O)C2=O)c2ccccc21 (stereo not drawn) [CBK261010] | 92.3
O=C(O)c1ccc(S(=O)(=O)c2ccc3c(c2)C(=O)N(c2ccccc2-c2ccccc2)C3=O)cc1 [CBK262760] | 101
Cc1n[nH]c(O)c1C(c1ccc(Br)o1)c1c(C)n[nH]c1O [CBK026150] | 102
Cc1cc(N)n(CC(=O)NCCCn2ccnc2C(C)C)n1 [CBK306632] | 89.3
Cc1cnc2[nH]c(C(F)(F)F)c(CN3CCCC(CO)C3)c2c1 (stereo not drawn) [CBK285167] | 93.6
Cc1nc2cc(C(=O)N3CCc4[nH]c5ccccc5c4C3)ccc2n1C [CBK281842] | 60.6
Cn1c(=O)n(C)c2cc(S(=O)(=O)NCCC(=O)O)ccc21 [CBK267565] | 105
COc1cccc2sc(N(Cc3cccnc3)C(=O)c3ccc(S(=O)(=O)N(C)C)cc3)nc12 [CBK294420] | 103
COc1ncccc1-c1cccnc1-n1ccnc1 [CBK176872] | 92.6
O=C(c1ccc(=O)[nH]n1)N1C2CCC1CC(c1ccc(F)cc1)C2 (stereo not drawn) [CBK283737] | 94.4
NC(C(=O)O)C(O)c1ccccc1[N+](=O)[O-] (stereo not drawn) [CBK262389] | 92.7
CC(=O)c1cccc(-c2ccc3c(c2)C(=O)NC2(CCN(C(=O)OC(C)(C)C)CC2)O3)c1 [CBK131969] | 95.4
CC(NC(=O)CS(=O)(=O)Cc1ccc(C#N)cc1)c1ccc(C#N)cc1 (stereo not drawn) [CBK297791] | 91.1
COc1ccc(CNC(=O)N2CCN(c3ccccc3OC)CC2)cc1OC [CBK155609] | 89.2
COc1cccc(NC(=O)Cn2cc(OC)c(=O)cc2CN2CCOCC2)c1 [CBK294430] | 87.2

Structure (SMILES) | viability at 28.5 h, 10 µM [%]
O=[N+]([O-])c1ccc(CN2CCN(Cc3c[nH]c4ccccc34)CC2)cc1 [CBK218620] | 92.3
Cn1nccc1C(=O)N1CCN(c2ncccn2)CC1 [CBK288240] | 90.7
Cc1c(Cl)cccc1S(=O)(=O)Nc1nc(CSc2ccccn2)ns1 [CBK200054] | 97.2
O=C(c1cccs1)N1CCC[C@@H]1Cn1c(=O)oc2ccccc21 [CBK284528] | 102
CC(=O)CSc1nnc(COc2ccc(C3CCCCC3)cc2)n1-c1ccccc1 [CBK265026] | 116
O=C(c1cc(F)c(F)cc1F)N1CCC2(CCCN(Cc3ccc(Cl)c(Cl)c3)C2)C1 (stereo not drawn) [CBK131990] | 95.1
COCCNc1nc(-c2ccc3c(c2)OCO3)ccc1C(=O)N(C)CCN(C)C [CBK105915] | 103
NC(=O)CNC(=O)C1CCCN(c2nc3c(-c4ccccc4)csc3c(=O)[nH]2)C1 (stereo not drawn) [CBK215487] | 112
O=S(=O)(c1ccc(-c2ccccc2)cc1)N1CCCN(CCCO)CC1 [CBK063043] | 102
CCN1CCN(CC(=O)N/N=C/c2ccc(F)cc2)CC1 [CBK261615] | 108
Cc1csc(C(Cc2ccsc2)NCC2=CCCOC2)n1 (stereo not drawn) [CBK282439] | 101
CN1CCN(S(=O)(=O)c2ccc(NC(=O)Cc3ccc([N+](=O)[O-])cc3)cc2)CC1 [CBK268161] | 121
O=C(O)CCNS(=O)(=O)c1ccc(Br)cc1 [CBK261941] | 90.6
O=C(CSc1nnc(-c2cccnc2)n1-c1ccc(Br)cc1)Nc1cc(C(F)(F)F)ccc1Cl [CBK266099] | 96.5
Cc1ccc(N(CC(=O)Nc2ccc(Br)c(C)c2)S(=O)(=O)c2ccc(C)cc2)cc1 [CBK264038] | 94.6
Cc1noc2nc(C3CCCN(C(=O)C4CC4)C3)cc(C(F)F)c12 (stereo not drawn) [CBK284608] | 85.8
COc1ccc(Cl)cc1CN(C)C(=O)c1cnn2cc(CCO)cnc12 [CBK307236] | 97.7
CC(C)N(CC(N)=O)Cc1nc(-c2cccc(C(F)(F)F)c2)no1 [CBK306287] | 89.8
COC(=O)[C@@H](C)NC(=O)[C@H]1CN(C(=O)Nc2ccccc2)CCN1C(C)=O [CBK289627] | 86.3
CCOc1ccc(S(=O)(=O)N(C)CC(=O)N2CCN(C)CC2)cc1Cl [CBK269865] | 101
Cc1cn([C@H]2C[C@@H](O)[C@@H](CO)O2)c(=O)n(CCC#N)c1=O [CBK201322] | 98.4

Structure (SMILES) | viability at 28.5 h, 10 µM [%]
CC(=O)Nc1ccc(Sc2ccccn2)cc1 [CBK085853] | 101
CC(=O)Nc1ccc(-c2nc[nH]c2Br)cc1 [CBK019063] | 88
CCOc1ccc(NC(=O)N(Cc2cnn(C)c2)CC(C)C)cc1C#N [CBK307636] | 93
Cc1nc2ccc(C(=O)N(C)CCN(C)C)cn2c1N(C)Cc1cccs1 [CBK146083] | 102
CC1Cc2ccccc2N1C(=O)C1C2C=CC(O2)C1C(=O)O (stereo not drawn) [CBK286891] | 86.9
Sc1nnc(-c2cccc(Br)c2)o1 [CBK288432] | 101
Cc1noc(C)c1C(=O)NCCc1ccc(S(N)(=O)=O)cc1 [CBK268143] | 104
O=C(NC(c1ccc(F)cc1)c1cnccn1)C1CCN(S(=O)(=O)c2cccc(Cl)c2)CC1 (stereo not drawn) [CBK060013] | 85.1
O=C(CN1C(=O)C2C3C=CC(C3)C2C1=O)NCc1ccco1 (stereo not drawn) [CBK265116] | 96.4
NS(=O)(=O)c1ccc(CCNC(=O)c2cc(Br)cnc2N2CCOCC2)cc1 [CBK076225] | 85.1
COC(=O)c1ccc(NC(=O)CSc2nnc(-c3ccncc3)s2)cc1 [CBK269239] | 103
Cc1cc2c(cc1C)OC1(C=C2)CCN(C(=O)N2CCOCC2)CC1 [CBK285314] | 94.4
O=C(Nc1ccccc1Cl)N1CCN(c2ccc(F)cc2)CC1 [CBK117849] | 95.7
O=c1[nH]c(=O)c2cc(S(=O)(=O)N3CCN(c4ccccn4)CC3)ccc2[nH]1 [CBK286379] | 112
O=C(O)c1cccc(CSc2nnc(-c3ccccc3)c(-c3ccccc3)n2)c1 [CBK269165] | 97.6
CCCCc1ccc(-c2ccc3ccc(NC(=O)C(C)C)nc3n2)cc1 [CBK073668] | 93
Cc1nc2c(C(=O)NCC(F)(F)F)cnn2c(C)c1Cc1cccc(C#N)c1 [CBK162093] | 91.6
Cc1cc(CN(C)Cc2c(C)nn(-c3ccc(F)cc3)c2C)n[nH]1 [CBK281990] | 95
FC(F)(F)c1ccc(OCCCc2ccncc2)nc1 [CBK115791] | 101
OC1CC(c2cc(F)ccc2F)N(CCc2ccncc2)C1 (stereo not drawn) [CBK305106] | 87.2
COc1ccc(OC[C@@H]2C3CCC(C3)N2C(=O)C2CC2)cc1 (stereo partly drawn) [CBK284602] | 94.7

Structure (SMILES) | viability at 28.5 h, 10 µM [%]
Cc1noc(C)c1C(=O)N1CCn2cc(C(F)(F)F)nc2C1 [CBK282431] | 90.2
CCOc1cc(/C=C2/NC(=O)N(c3ccccc3)C2=O)cc(Cl)c1OCc1cccc(C(=O)O)c1 [CBK265160] | 92
Cc1cccc(CNc2nccnc2-c2cccc(N)c2)c1 [CBK038080] | 92.4
COCCNc1nc2c(c(N3CCC(C#N)CC3)n1)CCNCC2 [CBK307706] | 86.6
CCn1c(C)nnc1SCCNc1cc(C)nc2ccnn12 [CBK306607] | 99.7
Cc1nc2c(C(=O)NC3CCOCC3)cnn2c(C)c1Cc1cccc(Br)c1 [CBK165011] | 92.3
CN(CCN1CCCCC1)C(=O)c1cc2ccc(N(C)C)cc2[nH]1 [CBK281830] | 107
Oc1ccccc1-c1ccnc(SC(F)F)n1 [CBK021971] | 81.8
CCCCn1c(CSc2ncccc2C(=O)O)nc2cc(S(=O)(=O)N3CCOCC3)ccc21 [CBK297558] | 84.1
COc1ccc(-c2nn(CCC#N)cc2C(=O)N2CCCCC2)cc1 [CBK305834] | 92.4
O=C(Oc1ccc(N(C(=O)c2ccncc2)S(=O)(=O)c2cccc3cccnc23)cc1)c1ccncc1 [CBK267123] | 89.5
COc1ccc2c(c1)c(=O)oc1cc(OCC(=O)N3CCc4ccccc4C3)ccc12 [CBK266346] | 110
O=C(NCCCc1ccccn1)C1(c2ccccc2F)CC1 [CBK283155] | 93.6
CN(C)S(=O)(=O)Nc1ccc2[nH]ccc2c1 [CBK156321] | 92.2
O=C(NCc1ccccc1)c1ccno1 [CBK200197] | 86.9
COc1ccc(Br)cc1S(=O)(=O)Nc1c(C(=O)O)sc2ncccc12 [CBK049978] | 88
CC1CCCCN1CCNC(=O)c1ccc(Cn2c(=S)[nH]c3ccccc3c2=O)cc1 (stereo not drawn) [CBK265674] | 96
Cc1cccn2cc(COC(=O)c3ccc(F)cc3N)nc12 [CBK298310] | 54.1
O=C1CNC(=O)C2(C/C=C/C[C@H]3COCC[C@H]3N1)CCN(C(=O)c1ccc(=O)[nH]n1)CC2 [CBK292161] | 110
Cc1n[nH]nc1C(=O)N(C)CC(C)Oc1ccc(Cl)c(Cl)c1 (stereo not drawn) [CBK306173] | 85.2
COc1cccc(NS(=O)(=O)c2cc(CC(=O)O)ccc2OC)c1 [CBK298333] | 93.9

same assay, conditions: human, hela cells, % viability, bulk resorufin, single well

Structure (SMILES) | viability at 28.5 h, 10 µM [%]
CC(C)(C)OC(=O)N1CCC2(CC1)OCc1cc(-c3cccc(OCc4ccc(Cl)c(Cl)c4)c3)ccc1O2 [CBK105230] | 86.6
O=C1NC(=O)N(Cc2ccccc2)C(=O)/C1=N\Nc1ccc([N+](=O)[O-])cc1 [CBK261123] | 94.5
Cc1cc(/C=C2\C(=O)NC(=O)N(C)C2=O)c(C)n1-c1ccc(Oc2ccc([N+](=O)[O-])cn2)cc1 [CBK264294] | 100
